Measured values as given in patent publication US20110099670A1, “[…] CODING FOR CIS-ACONITIC DECARBOXYLASE AND USE THEREOF” (priority 2008, published 2011).

Target: T1, cis-aconitate decarboxylase (CAD) (Aspergillus terreus, UniProt Q0C8L3)
T1 construct: Partial Purification of CAD from Itaconic Acid Producing A. Terreus; endogenous in cells; host or cells: Aspergillus terreus NRRL 1960 mycelium (cell free extract)
Assay: Effect of the addition of stabilizing compounds on the CAD activity
Assay type: biochemical, Aspergillus terreus NRRL 1960
Conditions: * final concentration of 20 mM, PEG 20% w/v; for CAD activity after 48 h: stabilizer added to buffer; for Initial CAD Activity: stabilizer added to buffer of A. terreus cell free extract
Method: The enzyme activity determination was essentially as described (Bentley et al., 1957 supra; Dwiarti et al., 2002, J Biosci Bioeng 94(1):29-33). 800 μl of 0.2 M sodium phosphate pH 6.5 was mixed with 100 μl 10 mM cis-aconitic acid and 100 μl protein solution and incubated for 20 till 60 min at 37° C. The reaction was stopped by the addition of 100 μl 12 M HCl. The amount of itaconic acid formed was determined by isocratic chromatography in 4 mM sulphuric acid on Bio-Rad Aminex HPX-87H column in a Dionex HPLC equipped with an UV detector at 215 nm. Calibration of the signal was accomplished by running a known amount of itaconic acid in a separate run. One unit (U) is one μmol of itaconic acid formed per minute. The same chromatographic assay was used to monitor the amount of itaconic acid formed in the broth of shake flasks or fermenter cultures as being indicative for cis-aconitate decarboxylase (CAD) induction. The protein concentration was measured according to Bradford with the Bio-Rad protein assay (Bradford, Anal Biochem 1976; 72:248-54).
Approximately 1 g of frozen mycelium was transferred to a Teflon vessel and grinded with a metal ball for one minute using a dismembrator (Braun-Melsungen, Germany). Multiple batches of the powdered mycelium were resuspended in 10 ml 0.2 M sodium phosphate buffer pH 6.5 containing 1 mM DTT and 1 mM EDTA and allowed to hydrate at 0° C. for thirty minutes while mixing and centrifuged at 15000 g for 30 minutes at 4° C. to obtain the CFE.
In the purification of CAD the inherent instability of the protein was noticed. […] To overcome this problem we adapted the purification method by the addition of potential stabilizers to the buffers (Table 2).

[1] = after 48 h relative to initial CAD activity

T1 sequence (Q0C8L3 whole entry): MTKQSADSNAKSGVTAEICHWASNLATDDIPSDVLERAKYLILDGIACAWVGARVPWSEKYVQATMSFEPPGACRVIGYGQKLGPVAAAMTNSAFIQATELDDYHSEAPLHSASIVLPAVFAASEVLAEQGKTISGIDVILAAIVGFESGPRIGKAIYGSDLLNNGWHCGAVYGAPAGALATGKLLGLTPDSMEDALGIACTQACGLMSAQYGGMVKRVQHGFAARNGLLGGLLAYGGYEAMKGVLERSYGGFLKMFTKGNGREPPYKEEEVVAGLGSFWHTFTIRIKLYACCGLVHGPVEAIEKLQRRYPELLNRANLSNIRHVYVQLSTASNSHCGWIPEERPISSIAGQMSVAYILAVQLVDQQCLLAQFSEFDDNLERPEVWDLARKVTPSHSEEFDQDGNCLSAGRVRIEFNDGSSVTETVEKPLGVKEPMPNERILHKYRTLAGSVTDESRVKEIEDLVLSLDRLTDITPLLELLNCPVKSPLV

Compound	CAD activity after 48 h [U/mL]	Remaining activity [1] [%]	Initial CAD Activity [U/mL]	remaining activity at 20000 µM [1] [%]
O=S([O-])[O-].[Na+].[Na+] [Na2SO3]	1.30	88	1.48	–
O=C1O[C@H]([C@@H](O)CO)C(O)=C1O [Ascorbic Acid]	0.19	–	1.36	14
O=C(O)c1ccccc1 [Benzoate]	0.43	32	1.36	–
